Data: patent US11273152B2, “TRPV2 antagonists” (Instituto de Medicina Molecular João Lobo Antunes, priority 2017, dated 2022)
Entries after “also recorded” stand apart in the source; their conditions may differ.

How the values were obtained:
[1] = biological target: TRPV3 (Homo sapiens, UniProt Q8NET8); assay: Fluorescence cell-based assay, TRPV3; details: calcium 5 dye, duplicate
Experimental: (§1) The assays were performed at SB Discovery (Glasgow, UK) on a fee-for-service basis. Human TRP cells were trypsinised, counted and seeded in black, clear-bottomed 96 well plates at a density of 50,000 cells per well in 100 μL volume and incubated overnight. Next day, the cells were loaded with calcium 5 dye or membrane potential dye. TRPV1-5, TRPA1, TRPM2, TRPM3, and TRPM8 were tested using the calcium 5 dye. TRPC1, TRPC3-7, and TRPM4-5 were tested using the membrane potential dye. Both dye solutions were made up in HEPES buffered Hank's balanced salt solution (HBSS). Dye solution (90 μL) was added to the wells and incubated at 37° C. for 1 hour. Test compounds and standard inhibitors (10 μL) were then added to the wells and incubated at room temperature for 10 minutes. The plates were then placed in the flexstation and fluorescence monitored every 1.52 seconds. After 20 seconds agonist was added and the fluorescence monitored for 2 minutes at 485 nm/525 nm and 530 nm/565 nm, Ex/Em, for the calcium 5 dye and the membrane potential dye respectively. Controls-TRPV1: capsazepine; TRPV2: tranilast; TRPV3: ruthenium red; TRPV4: ruthenium red; TRPV5: Gd^3+; TRPA1, ruthenium red; TRPC1: Gd^3+; TRPC3: Pyr3; TRPC4: ML 204; TRPC5: ML 204; TRPC6: ML 204; TRPC7: SKF 96365; TRPM2: 2-APB; TRPM3: Mef acid; TRPM4: clotrimazole; TRPM5: TPPO; TRPM8: 2-APB. […]

[2] = biological target: T1, TRPV2 (Homo sapiens, UniProt Q9Y5S1); assay: Co-incubation experiments with cannabidiol (mode of binding); type: cell-based
T1 sequence (Q9Y5S1 1-764): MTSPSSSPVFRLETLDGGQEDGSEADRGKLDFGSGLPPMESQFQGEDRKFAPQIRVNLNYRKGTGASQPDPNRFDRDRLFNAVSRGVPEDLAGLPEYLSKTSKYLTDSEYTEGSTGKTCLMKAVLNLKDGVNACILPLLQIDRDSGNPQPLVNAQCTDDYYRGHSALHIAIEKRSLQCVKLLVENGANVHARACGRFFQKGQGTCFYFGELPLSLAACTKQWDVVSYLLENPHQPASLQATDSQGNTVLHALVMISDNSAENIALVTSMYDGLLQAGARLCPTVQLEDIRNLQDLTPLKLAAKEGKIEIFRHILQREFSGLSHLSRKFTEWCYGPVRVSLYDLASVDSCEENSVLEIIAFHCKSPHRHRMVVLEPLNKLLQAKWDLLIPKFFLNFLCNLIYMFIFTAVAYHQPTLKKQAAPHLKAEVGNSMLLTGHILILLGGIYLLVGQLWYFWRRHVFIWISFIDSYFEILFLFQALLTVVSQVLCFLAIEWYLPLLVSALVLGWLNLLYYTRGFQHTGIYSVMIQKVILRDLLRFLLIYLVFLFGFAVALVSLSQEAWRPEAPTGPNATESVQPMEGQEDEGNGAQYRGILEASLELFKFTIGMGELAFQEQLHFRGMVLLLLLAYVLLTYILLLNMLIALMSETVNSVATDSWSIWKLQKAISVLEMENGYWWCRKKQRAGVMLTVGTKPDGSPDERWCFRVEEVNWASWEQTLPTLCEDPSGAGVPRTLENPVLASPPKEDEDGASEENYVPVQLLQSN

[3] = biological target: TRPM4 (Homo sapiens, UniProt Q8TD43); assay: Fluorescence cell-based assay, TRPM4; details: membrane potential dye, duplicate
Experimental: as §1

[4] = biological target: T1, TRPV2; assay: Intracellular calcium imaging (Fura-2 AM) in HepG2 cells; type: cell-based; details: 1 at 5 μM
Experimental: Cells (ATCC) were grown to 50% confluency in DMEM (Gibco) supplemented with 10% FBS (Gibco), GlutaMax (Gibco), MEM and NEAA (Gibco), 4.5 g/L glucose and 0.11 g/L sodium pyruvate. Cells were seeded in μ-ibidi 8 well plates and transfected with TRPV2-RFP^34 (kindly gifted by Prof. Itaru Kojimu Gunma University, Japan). After 48 h of incubation, cells were subjected to calcium imaging. Intracellular calcium measurements were performed with Fura-2 AM (Life Technologies) and modified from previously described studies.^12 In short, 1 hour before the measurement, cells were loaded with 5 μM Fura-2-AM for 45 minutes. Cell medium was replaced by Tyrod's solution (119 mM NaCl, 5 mM KCl, 2 mM CaCl2, 2 mM MgCl2, 6 g/L glucose, 25 mM HEPES pH 7.4). Simultaneously, the respective treatment was added to the cells (final concentration of 1% DMSO (control), 5 μM piperlongumine and 10 μM tranilast) and cells were allowed to re-adjustment for 15 minutes. Fura-2 AM emissions from 340 nm and 380 nm excitation were recorded for 1 minute before TRPV2 was activated by addition of 4 μM or 20 μM cannabidiol (CBD). Image analysis was done using the MetaFluor Analyst software. The statistical analysis was performed with astatsa.com. After calcium imaging acquisition, the cells were immediately fixed with 4% paraformaldehyde for 15 min. […]

[5] = biological target: TRPC5 (Homo sapiens, UniProt Q9UL62); assay: Fluorescence cell-based assay, TRPC5; details: membrane potential dye, duplicate
Experimental: as §1

[6] = system: chiru TRPV2 orthologue; assay: Isothermal titration calorimetry, chiru TRPV2; type: binding; details: chiru TRPV2 constructs; 100 μM
[7] = Dynamic light scattering, colloidal aggregation; type: physicochemical; details: water, 25° C.
Experimental: Dynamic light scattering (Zetasizer Nano S, Malvern, UK) was used to determine compound colloidal aggregation. The particle sizes were measured at 25° C. Water solubility was measured as described elsewhere with successive measurements within 60 minutes.^35 A 100 mM stock solution of piperlongumine was prepared in DMSO, following dilution to deionized water to obtain an analyte solution of 100 μM (0.1% DMSO). Colloidal aggregation was measured through sequential dilutions.

[8] = biological target: TRPC7 (Homo sapiens, UniProt Q9HCX4); assay: Fluorescence cell-based assay, TRPC7; details: membrane potential dye, spread in log units, duplicate
Experimental: as §1

[9] = biological target: TRPC6 (Homo sapiens, UniProt Q9Y210); assay: Fluorescence cell-based assay, TRPC6; details: membrane potential dye, duplicate
Experimental: as §1

[10] = biological target: T1, TRPV2; assay: Fluorescence cell-based assay, TRPV2 (cannabidiol-evoked calcium influx); details: TRPV2
Experimental: The assays were performed at SB Discovery (Glasgow, UK) on a fee-for-service basis. Human TRP cells were trypsinised, counted and seeded in black, clear-bottomed 96 well plates at a density of 50,000 cells per well in 100 μL volume and incubated overnight. Next day, the cells were loaded with calcium 5 dye or membrane potential dye. TRPV1-5, TRPA1, TRPM2, TRPM3, and TRPM8 were tested using the calcium 5 dye. TRPC1, TRPC3-7, and TRPM4-5 were tested using the membrane potential dye. Both dye solutions were made up in HEPES buffered Hank's balanced salt solution (HBSS). Dye solution (90 μL) was added to the wells and incubated at 37° C. for 1 hour. Test compounds and standard inhibitors (10 μL) were then added to the wells and incubated at room temperature for 10 minutes. The plates were then placed in the flexstation and fluorescence monitored every 1.52 seconds. After 20 seconds agonist was added and the fluorescence monitored for 2 minutes at 485 nm/525 nm and 530 nm/565 nm, Ex/Em, for the calcium 5 dye and the membrane potential dye respectively. Controls-TRPV1: capsazepine; TRPV2: tranilast; TRPV3: ruthenium red; TRPV4: ruthenium red; TRPV5: Gd^3+; TRPA1, ruthenium red; TRPC1: Gd^3+; TRPC3: Pyr3; TRPC4: ML 204; TRPC5: ML 204; TRPC6: ML 204; TRPC7: SKF 96365; TRPM2: 2-APB; TRPM3: Mef acid; TRPM4: clotrimazole; TRPM5: TPPO; TRPM8: 2-APB. Control data was in all cases within historical range.

[11] = system: Huh-7; assay: Wound-healing scratch assay, Huh-7; type: cell-based
[12] = biological target: TRPA1 (Homo sapiens, UniProt O75762); assay: Fluorescence cell-based assay, TRPA1; details: calcium 5 dye, spread in log units, duplicate
Experimental: as §1

Sequence of TRPC7 (Q9HCX4 whole entry): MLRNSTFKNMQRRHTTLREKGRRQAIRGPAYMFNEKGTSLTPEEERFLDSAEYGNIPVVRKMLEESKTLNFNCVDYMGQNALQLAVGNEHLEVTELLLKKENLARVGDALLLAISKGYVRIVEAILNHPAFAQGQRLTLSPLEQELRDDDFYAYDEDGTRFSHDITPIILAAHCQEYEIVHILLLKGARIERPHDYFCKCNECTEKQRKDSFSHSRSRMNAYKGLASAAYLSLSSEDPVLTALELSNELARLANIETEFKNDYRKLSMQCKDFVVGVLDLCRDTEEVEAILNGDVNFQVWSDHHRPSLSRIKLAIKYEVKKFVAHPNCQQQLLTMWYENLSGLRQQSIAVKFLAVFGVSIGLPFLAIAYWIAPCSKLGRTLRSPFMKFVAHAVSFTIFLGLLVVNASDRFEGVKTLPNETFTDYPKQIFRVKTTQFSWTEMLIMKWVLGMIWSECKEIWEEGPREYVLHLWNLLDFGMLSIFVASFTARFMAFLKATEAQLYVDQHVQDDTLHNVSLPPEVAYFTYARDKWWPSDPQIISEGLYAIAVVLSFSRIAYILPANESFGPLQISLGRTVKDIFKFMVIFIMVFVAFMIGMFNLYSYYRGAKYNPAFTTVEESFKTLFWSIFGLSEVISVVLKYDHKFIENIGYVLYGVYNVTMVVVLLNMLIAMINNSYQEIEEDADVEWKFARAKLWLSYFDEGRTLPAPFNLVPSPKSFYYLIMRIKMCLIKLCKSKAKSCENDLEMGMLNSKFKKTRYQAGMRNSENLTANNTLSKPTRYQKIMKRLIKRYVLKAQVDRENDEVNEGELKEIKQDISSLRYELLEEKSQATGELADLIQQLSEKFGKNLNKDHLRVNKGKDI
Sequence of TRPC5 (Q9UL62 whole entry): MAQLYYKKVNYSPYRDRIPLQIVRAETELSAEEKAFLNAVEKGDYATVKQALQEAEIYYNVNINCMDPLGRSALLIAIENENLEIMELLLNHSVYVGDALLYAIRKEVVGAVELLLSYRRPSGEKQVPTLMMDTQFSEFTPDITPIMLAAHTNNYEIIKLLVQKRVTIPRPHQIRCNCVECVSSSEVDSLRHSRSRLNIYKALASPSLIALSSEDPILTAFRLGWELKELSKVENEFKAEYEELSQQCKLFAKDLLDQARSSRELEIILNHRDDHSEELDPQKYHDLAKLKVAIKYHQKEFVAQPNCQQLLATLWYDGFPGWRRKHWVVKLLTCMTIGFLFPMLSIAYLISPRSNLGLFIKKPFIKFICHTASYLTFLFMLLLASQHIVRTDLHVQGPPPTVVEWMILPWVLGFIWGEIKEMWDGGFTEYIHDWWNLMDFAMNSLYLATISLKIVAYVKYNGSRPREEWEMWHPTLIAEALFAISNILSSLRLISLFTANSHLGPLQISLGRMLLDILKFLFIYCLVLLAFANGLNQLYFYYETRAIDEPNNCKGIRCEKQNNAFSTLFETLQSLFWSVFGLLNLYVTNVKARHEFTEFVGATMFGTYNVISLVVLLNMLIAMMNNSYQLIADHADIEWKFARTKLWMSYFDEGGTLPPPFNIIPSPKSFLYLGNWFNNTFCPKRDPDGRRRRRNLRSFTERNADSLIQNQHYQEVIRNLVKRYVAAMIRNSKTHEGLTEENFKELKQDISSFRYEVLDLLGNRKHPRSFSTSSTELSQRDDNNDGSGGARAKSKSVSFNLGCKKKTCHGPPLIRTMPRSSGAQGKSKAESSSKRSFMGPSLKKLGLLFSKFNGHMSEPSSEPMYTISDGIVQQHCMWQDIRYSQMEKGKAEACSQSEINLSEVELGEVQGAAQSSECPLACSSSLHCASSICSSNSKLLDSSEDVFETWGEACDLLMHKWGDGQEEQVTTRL
Sequence of TRPV3 (Q8NET8 whole entry): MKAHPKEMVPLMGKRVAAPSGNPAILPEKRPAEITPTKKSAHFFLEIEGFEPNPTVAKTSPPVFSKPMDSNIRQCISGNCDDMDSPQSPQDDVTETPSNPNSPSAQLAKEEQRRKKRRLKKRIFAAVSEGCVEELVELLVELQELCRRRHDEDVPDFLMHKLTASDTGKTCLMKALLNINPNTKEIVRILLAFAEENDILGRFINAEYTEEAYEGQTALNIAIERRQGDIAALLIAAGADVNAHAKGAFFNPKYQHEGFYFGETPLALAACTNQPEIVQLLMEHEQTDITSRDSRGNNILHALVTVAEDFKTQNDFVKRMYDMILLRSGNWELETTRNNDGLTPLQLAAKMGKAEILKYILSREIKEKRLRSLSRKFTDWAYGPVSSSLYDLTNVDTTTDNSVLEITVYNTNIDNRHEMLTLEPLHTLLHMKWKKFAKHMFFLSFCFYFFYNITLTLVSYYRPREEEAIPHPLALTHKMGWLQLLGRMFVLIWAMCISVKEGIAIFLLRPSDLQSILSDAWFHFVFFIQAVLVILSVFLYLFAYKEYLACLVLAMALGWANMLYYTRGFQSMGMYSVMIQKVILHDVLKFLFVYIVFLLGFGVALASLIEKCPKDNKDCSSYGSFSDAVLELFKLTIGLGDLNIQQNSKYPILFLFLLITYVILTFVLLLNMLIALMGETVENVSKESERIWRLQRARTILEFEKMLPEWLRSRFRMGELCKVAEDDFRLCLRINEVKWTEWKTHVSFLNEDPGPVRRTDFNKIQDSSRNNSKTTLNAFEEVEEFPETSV
Sequence of TRPM4 (Q8TD43 whole entry): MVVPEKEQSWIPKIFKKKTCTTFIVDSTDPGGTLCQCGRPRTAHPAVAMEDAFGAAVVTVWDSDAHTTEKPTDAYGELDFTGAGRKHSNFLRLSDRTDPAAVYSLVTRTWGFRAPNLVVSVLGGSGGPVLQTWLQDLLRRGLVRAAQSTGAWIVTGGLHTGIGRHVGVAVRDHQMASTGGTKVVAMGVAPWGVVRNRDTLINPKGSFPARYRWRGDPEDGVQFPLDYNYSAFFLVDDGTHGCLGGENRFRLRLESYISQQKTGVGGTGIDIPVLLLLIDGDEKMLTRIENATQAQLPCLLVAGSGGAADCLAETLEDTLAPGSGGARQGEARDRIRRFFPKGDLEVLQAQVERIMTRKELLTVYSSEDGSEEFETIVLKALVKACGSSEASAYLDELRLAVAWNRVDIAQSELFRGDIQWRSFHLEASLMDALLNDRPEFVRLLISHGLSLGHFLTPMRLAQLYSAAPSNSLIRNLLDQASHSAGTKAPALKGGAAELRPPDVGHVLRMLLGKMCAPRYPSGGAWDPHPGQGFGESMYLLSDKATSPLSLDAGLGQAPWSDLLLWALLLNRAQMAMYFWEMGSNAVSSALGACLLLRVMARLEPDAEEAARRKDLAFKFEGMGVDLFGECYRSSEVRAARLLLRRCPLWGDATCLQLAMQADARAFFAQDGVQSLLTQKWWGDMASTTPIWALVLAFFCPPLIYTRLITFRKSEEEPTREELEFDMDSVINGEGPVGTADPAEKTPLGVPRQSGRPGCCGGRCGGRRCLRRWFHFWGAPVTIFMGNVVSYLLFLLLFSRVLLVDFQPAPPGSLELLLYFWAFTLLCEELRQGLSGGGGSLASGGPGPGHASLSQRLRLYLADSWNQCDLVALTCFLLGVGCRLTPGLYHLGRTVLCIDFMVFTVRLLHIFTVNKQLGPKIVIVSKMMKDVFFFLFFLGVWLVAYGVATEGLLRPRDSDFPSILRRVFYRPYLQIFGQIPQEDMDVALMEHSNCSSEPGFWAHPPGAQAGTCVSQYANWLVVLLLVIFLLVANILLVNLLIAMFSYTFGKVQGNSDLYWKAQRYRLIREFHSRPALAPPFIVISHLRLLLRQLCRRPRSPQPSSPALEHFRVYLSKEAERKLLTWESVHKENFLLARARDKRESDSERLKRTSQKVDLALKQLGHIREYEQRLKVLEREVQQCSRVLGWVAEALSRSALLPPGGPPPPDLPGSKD
Sequence of TRPC6 (Q9Y210 whole entry): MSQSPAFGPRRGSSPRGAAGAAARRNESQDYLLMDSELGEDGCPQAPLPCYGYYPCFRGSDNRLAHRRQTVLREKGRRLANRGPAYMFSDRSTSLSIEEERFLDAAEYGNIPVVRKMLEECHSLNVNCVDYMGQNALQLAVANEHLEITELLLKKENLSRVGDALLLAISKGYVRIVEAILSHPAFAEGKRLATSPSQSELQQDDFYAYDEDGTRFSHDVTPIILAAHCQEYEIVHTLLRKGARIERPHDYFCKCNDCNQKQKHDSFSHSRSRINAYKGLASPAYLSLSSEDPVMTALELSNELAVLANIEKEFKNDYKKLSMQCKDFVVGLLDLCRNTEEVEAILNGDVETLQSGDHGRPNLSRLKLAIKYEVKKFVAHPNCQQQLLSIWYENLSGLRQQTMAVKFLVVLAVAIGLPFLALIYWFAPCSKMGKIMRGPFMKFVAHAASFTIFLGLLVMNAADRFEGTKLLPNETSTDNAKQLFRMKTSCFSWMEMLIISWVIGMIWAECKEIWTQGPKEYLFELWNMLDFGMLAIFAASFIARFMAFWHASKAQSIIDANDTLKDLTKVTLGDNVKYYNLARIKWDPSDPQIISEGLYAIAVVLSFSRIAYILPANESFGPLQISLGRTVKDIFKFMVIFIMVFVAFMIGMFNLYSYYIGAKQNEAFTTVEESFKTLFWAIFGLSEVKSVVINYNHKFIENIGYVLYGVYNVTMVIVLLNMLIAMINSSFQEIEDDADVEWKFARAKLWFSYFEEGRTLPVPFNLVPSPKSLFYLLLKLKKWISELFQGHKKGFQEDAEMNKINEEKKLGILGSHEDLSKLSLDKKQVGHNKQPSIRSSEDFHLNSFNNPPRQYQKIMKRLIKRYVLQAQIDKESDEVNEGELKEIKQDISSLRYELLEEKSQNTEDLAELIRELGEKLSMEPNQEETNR

SMILES: COc1cc(/C=C/C(=O)N2CCC=CC2=O)cc(OC)c1OC [Compound 1, piperlongumine]
- IC50 [1]: > 100 µM
- Mode of antagonism ([2]; EC50 curves of cannabidiol with increasing concentrations of 1): non-competitive (allosteric) antagonism
- Concentration of 1 above which apparent vmax of cannabidiol is reduced ([2]; Michaelis-Menten analysis): higher than 5 pM
- IC50 [3]: > 100 µM
- Inhibition of CBD evoked calcium influx in HepG2 cells ([4]; CBD 4 μM): No statistically significant difference is observed between all samples
- Inhibition of CBD evoked calcium influx in HepG2 cells ([4]; CBD 20 μM, 120 s post stimulation): significantly inhibited; also recorded: significant difference between control and 1 (p<0.01)
- IC50 [5]: > 100 µM
- Binding by isothermal titration calorimetry [6]: did not bind
- Colloidal aggregation (dynamic light scattering) [7]: absence of colloidal aggregate-induced inhibition
- IC50 [8]: 64 ± 0.06 µM
- IC50 [9]: > 100 µM
- Ligand Efficiency [10]: 0.32
- IC50 ([10]; calcium 5 dye, spread in log units, duplicate, read-out: IC50/μM ± SD): 4.6 µM
- Cell migration, wound healing [11]: reproducible
- IC50 [12]: 39 ± 0.15 µM
